# Experiments:
# [1] = test system: Escherichia coli BL21-Star (DE3) expressing DSM-2 (v2); assay: Complementation of cell growth on glufosinate, pDAB4412 (DSM-2 v2); format: cell-based; parameters: bacterial growth on minimal media: key: −− = No Growth; +++ = Distinct Colony Growth; details: for bacterial growth on minimal media: 24 hrs @28 C, 20 uM IPTG
# Description: The plasmids, pDAB4434, pDAB4412, and an empty pET vector (control) were transformed into Escherichia coli BL21-Star (DE3) bacterial cells. Expression cultures were initiated with 10-200 freshly transformed colonies into 250 mL LB medium containing 50 μg/ml antibiotic and 75 μM IPTG (isopropyl-[…]). The cultures were grown at 28° C. for 24 hours at 180-200 rpm. Five microliters of the culture was inoculated onto a complex media control and minimal media containing incrementally increasing concentrations of glufosinate and 20 μM IPTG. The cultures were dispersed evenly over the plates and incubated at 28° C. for 24 hours.
# PAT (pDAS1942) corn = assay: T2 corn response to glufosinate applied postemergence; format: in vivo; details: 14DAT
# Description: (§1) The seed from the cross of T1 DSM-2 (v2)×5× H751 were planted into 4-inch pots containing Metro Mix media and at 2 leaf stage were sprayed in the track sprayer set to 187 L/ha at 560 g ai/ha glufosinate to remove nulls. At 7 DAT nulls were removed and resistant plants were sprayed in the track sprayer as above at the following rates: 0, 560, 1120, 2240, and 4480 g ai/ha glufosinate. Plants were graded at 3 and 14 DAT and compared to 5× H751× Hi II control plants.
# [2] = test system: DSM-2 v2 (pDAS1941) T2 corn; assay: as above; format: in vivo; details: for % Injury Ave / individuals with % Injury 20-40% / individuals with % Injury <20% / individuals with % Injury >40%: 14DAT
# Description: as §1
# [3] = test system: Arabidopsis seed (wildtype, PAT, DSM-2 (v2)); assay: DSM-2 (v2) as selectable marker: survival of sown seed after glufosinate spray; format: in vivo, Arabidopsis thaliana
# Description: The ability to use DSM-2 (v2) as a selectable marker using glufosinate as the selection agent was analyzed with Arabidopsis transformed as described above. Approximately 100 T1 generation Arabidopsis seed (100-150 seeds) containing for DSM-2 (v2) or 2 mg homozygous T5 plants containing PAT were spiked into approximately 10,000 wildtype (sensitive) seed. Each tray of plants received two application timings of 280 g ai/ha glufosinate at the following treatment times: 7 DAP and 11 DAP. Treatments were applied with a DeVilbiss spray tip as previously described. Another 2 mg T1 generation Arabidopsis seed from each was sown and not sprayed as a comparison count. Plants were identified as Resistant or Sensitive 17 DAP.
# [4] = test system: Escherichia coli BL21-Star (DE3) with CsVMV promoter//DSM-2 (3264); assay: Viral promoter driven complementation on glufosinate, plasmid 3264; format: cell-based; details: for bacterial growth on minimal media: 48 hrs @37 C; for bacterial growth on minimal media: key: ++++ = Heavy Lawn Growth; +++ = Lawn Growth; ++ = Lots of Distinct Colonies; + = Scattered Colony Growth
# Description: Plasmid constructs in which the DSM-2 (v2) and PAT gene coding sequences were expressed, under either the viral promoters CsVMV or the plant promoter AtUbi10, were assayed for complementation on minimal media containing glufosinate. The plasmids 3778 (Rb7 MARv3//AtUbi10 promoter//DSM-2 (v2)//Atu Orf 1 3′UTR), 3779 (Rb7 MARv3//AtUbi10 promoter//PAT//Atu Orf 1 3′UTR), 3264 (CsVMV promoter//DSM-2//Atu Orf 24 3′UTR), 3037 (CsVMV promoter//PAT//Atu Orf 25/26 3′UTR), and 770 (control plasmid containing CsVMV promoter//GUS v3//Atu Orf 24 3′UTR) were transformed into Escherichia coli BL21-Star (DE3) and grown up in complex media. Five microliters of the cultures were plated on minimal media containing increasing concentrations of Glufosinate and incubated at 37° C. for 48 hours.
# [5] = 560 g ai/ha glufosinate postemergence
# [6] = 1120 g ai/ha glufosinate postemergence
# [7] = 4480 g ai/ha glufosinate postemergence
# [8] = 2240 g ai/ha glufosinate postemergence
compound,measurement,setting,value
CP(=O)(O)CCC(N)C(=O)O (stereo not drawn) [glufosinate],bacterial growth on minimal media,[1]; 250 μg/ml BASTA,+++
same,bacterial growth on minimal media,[1]; 500 μg/ml BASTA,+++
same,bacterial growth on minimal media,[1]; 1000 μg/ml BASTA,+++
same,bacterial growth on minimal media,[1]; 2000 μg/ml BASTA,+++
same,bacterial growth on minimal media,[1]; 4000 μg/ml BASTA,+++
same,concentration in minimal media at which expression of DSM-2 complemented resistance,[1]; minimal media,400 µg/mL
same,individuals with % Injury 20-40%,PAT (pDAS1942) corn; [5],0
same,individuals with % Injury >40%,PAT (pDAS1942) corn; [5],0
same,% Injury Ave,PAT (pDAS1942) corn; [6],25%
same,individuals with % Injury 20-40%,PAT (pDAS1942) corn; [6],1
same,individuals with % Injury <20%,PAT (pDAS1942) corn; [6],0
same,% Injury Ave,PAT (pDAS1942) corn; [7],33%
same,individuals with % Injury 20-40%,PAT (pDAS1942) corn; [7],3
same,individuals with % Injury >40%,PAT (pDAS1942) corn; [7],1
same,% Injury Ave,[2]; [5],6%
same,individuals with % Injury 20-40%,[2]; [5],0
same,individuals with % Injury <20%,[2]; [5],4
same,individuals with % Injury >40%,[2]; [5],0
same,% Injury Ave,[2]; [6],18%
same,individuals with % Injury 20-40%,[2]; [6],2
same,individuals with % Injury <20%,[2]; [6],2
same,individuals with % Injury >40%,[2]; [6],0
same,% Injury Ave,[2]; [8],21%
same,individuals with % Injury 20-40%,[2]; [8],3
same,individuals with % Injury <20%,[2]; [8],1
same,individuals with % Injury >40%,[2]; [8],0
same,% Injury Ave,[2]; [7],29%
same,individuals with % Injury 20-40%,[2]; [7],4
same,individuals with % Injury <20%,[2]; [7],0
same,individuals with % Injury >40%,[2]; [7],0
same,injury of individual plants,[2]; up to 2240 g ai/ha glufosinate,less than 20%
same,Number of Surviving Plants Following glufosinate Spray,"[3]; 280 g ai/ha glufosinate 7 DAP and 11 DAP, Trt 1: 200 mg WT planted",0
same,Number of Surviving Plants Following glufosinate Spray,"[3]; 280 g ai/ha glufosinate, Trt 2: 2 mg PAT planted",154
same,Number of Surviving Plants Following glufosinate Spray,"[3]; 280 g ai/ha glufosinate, Trt 3: 200 mg WT + 2 mg PAT planted",121
same,Number of Surviving Plants Following glufosinate Spray,"[3]; 280 g ai/ha glufosinate, Trt 4: 2 mg DSM-2 (v2) planted",117
same,Number of Surviving Plants Following glufosinate Spray,"[3]; 280 g ai/ha glufosinate, Trt 5: 200 mg WT + 2 mg DSM-2 (v2) planted",121
same,bacterial growth on minimal media,[4]; 250 μg/ml BASTA,++
same,bacterial growth on minimal media,[4]; 500 μg/ml BASTA,+
same,concentration in minimal media to which promoter-driven DSM-2 provided resistance,"[4]; CsVMV promoter, minimal media",200 µg/mL

# Source: patent publication US20110195845A1, “Constructs for Expressing Herbicide Tolerance Genes, Related Plants, and Related Trait Combinations” (Dow AgroSciences LLC, priority 2008, published 2011)
